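Dose response: 5 concentrations. Exposure: 48 h. Format: 96-well plates. Endpoint: linear interpolation; highest concentration if not reached. GI50: concentration for 50% inhibition of growth.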 Calls of active or inactive are those of the source. Cut-off read from the data, not from the text of the source: active = GI50 up to about 1.1 µM and inactive = higher.
Assays:
Assay in all cases: NCI-60 cell line screen, 48 h
U-251 = system: U-251
OVCAR-3 = system: OVCAR-3
UACC-62 = system: UACC-62
LOX IMVI = system: LOX IMVI
HCC 2998 = system: HCC 2998
KM12 = system: KM12
SNB-19 = system: SNB-19
Hs-578T = system: Hs-578T
A549 = system: A549
SK-MEL-5 = system: SK-MEL-5
PC-3 = system: PC-3
CCRF-CEM = system: CCRF-CEM
SK-MEL-2 = system: SK-MEL-2
K562 = system: K562
HCT-15 = system: HCT-15
SF-295 = system: SF-295
OVCAR-4 = system: OVCAR-4
M14 = system: M14
OVCAR-5 = system: OVCAR-5
HOP-62 = system: HOP-62

Structure (SMILES)	GI50 (U-251)	GI50 (OVCAR-3)	GI50 (UACC-62)	GI50 (LOX IMVI)	GI50 (HCC 2998)	GI50 (KM12)	GI50 (SNB-19)	GI50 (Hs-578T)	GI50 (A549)	GI50 (SK-MEL-5)	GI50 (PC-3)	GI50 (CCRF-CEM)	GI50 (SK-MEL-2)	GI50 (K562)	GI50 (HCT-15)	GI50 (SF-295)	GI50 (OVCAR-4)	GI50 (M14)	GI50 (OVCAR-5)	GI50 (HOP-62)
C/C(=N\NC(=S)N1CCN(C2CCCCCC2)CC1)c1ccccn1	< 0.0117 µM (active)	0.01 µM (active)	< 0.012 µM (active)	0.01 µM (active)	< 0.0485 µM (active)	0.0197 µM (active)	1.71 µM (inactive)	1.49 µM (inactive)	< 0.0379 µM (active)	0.0249 µM (active)	0.01 µM (active)	0.01 µM (active)	0.481 µM (active)	0.01 µM (active)	0.01 µM	< 0.0476 µM (active)	0.041 µM (active)	0.01 µM (active)	–	–
Cc1ccc(S(=O)(=O)N2CCCN(S(=O)(=O)c3ccc(C)cc3)CC2)cc1	> 100 µM (inactive)	> 100 µM (inactive)	–	0.0578 µM (active)	> 100 µM (inactive)	> 100 µM (inactive)	> 100 µM (inactive)	> 100 µM (inactive)	> 10 µM (inactive)	> 100 µM (inactive)	> 100 µM (inactive)	> 100 µM (inactive)	–	> 100 µM (inactive)	> 100 µM	> 100 µM (inactive)	> 100 µM (inactive)	> 100 µM (inactive)	–	–
NC(CCCCCP(=O)(O)O)C(=O)O (stereo unspecified) [AP-7]	> 100 µM (inactive)	> 100 µM (inactive)	80.7 µM (inactive)	> 100 µM (inactive)	> 100 µM (inactive)	> 100 µM (inactive)	> 100 µM (inactive)	> 100 µM (inactive)	> 100 µM (inactive)	> 100 µM (inactive)	> 100 µM (inactive)	> 100 µM (inactive)	> 100 µM (inactive)	> 100 µM (inactive)	> 100 µM	> 100 µM (inactive)	> 100 µM (inactive)	> 100 µM (inactive)	> 100 µM (inactive)	–
O=C1CCC(NC(=O)c2ccccc2)C(=O)N1 (stereo unspecified)	> 100 µM (inactive)	> 100 µM (inactive)	> 100 µM (inactive)	> 100 µM (inactive)	> 100 µM (inactive)	> 100 µM (inactive)	> 100 µM (inactive)	> 100 µM (inactive)	> 100 µM (inactive)	> 100 µM (inactive)	> 100 µM (inactive)	–	> 100 µM (inactive)	–	> 100 µM	> 100 µM (inactive)	> 100 µM (inactive)	> 100 µM (inactive)	> 100 µM (inactive)	> 100 µM (inactive)
